Results on 5 compounds are retold here after US9321776B2, “Isochromene derivatives as phoshoinositide 3-kinases inhibitors” (CHIESI FARMACEUTICI S.p.A., priority 2013, dated 2016).

SMILES strings stand for the structures. pIC50: −log10 of the molar value. Where a name gives a salt, the structure may show the parent alone. Some results are limits rather than exact numbers.

What all share (assay): PI3K enzyme inhibitory activity in the cell free assay (ADP-Glo Kinase Assay)
What all share (type): biochemical
(In general: In ADP-Glo the light output rises with the ADP produced.)

The target in assay [1] is T1, PI3Kα (Homo sapiens, UniProt P42336).
T1 construct: purchased Millipore Ltd (Billerica, Mass.)
T1 sequence (P42336 whole entry): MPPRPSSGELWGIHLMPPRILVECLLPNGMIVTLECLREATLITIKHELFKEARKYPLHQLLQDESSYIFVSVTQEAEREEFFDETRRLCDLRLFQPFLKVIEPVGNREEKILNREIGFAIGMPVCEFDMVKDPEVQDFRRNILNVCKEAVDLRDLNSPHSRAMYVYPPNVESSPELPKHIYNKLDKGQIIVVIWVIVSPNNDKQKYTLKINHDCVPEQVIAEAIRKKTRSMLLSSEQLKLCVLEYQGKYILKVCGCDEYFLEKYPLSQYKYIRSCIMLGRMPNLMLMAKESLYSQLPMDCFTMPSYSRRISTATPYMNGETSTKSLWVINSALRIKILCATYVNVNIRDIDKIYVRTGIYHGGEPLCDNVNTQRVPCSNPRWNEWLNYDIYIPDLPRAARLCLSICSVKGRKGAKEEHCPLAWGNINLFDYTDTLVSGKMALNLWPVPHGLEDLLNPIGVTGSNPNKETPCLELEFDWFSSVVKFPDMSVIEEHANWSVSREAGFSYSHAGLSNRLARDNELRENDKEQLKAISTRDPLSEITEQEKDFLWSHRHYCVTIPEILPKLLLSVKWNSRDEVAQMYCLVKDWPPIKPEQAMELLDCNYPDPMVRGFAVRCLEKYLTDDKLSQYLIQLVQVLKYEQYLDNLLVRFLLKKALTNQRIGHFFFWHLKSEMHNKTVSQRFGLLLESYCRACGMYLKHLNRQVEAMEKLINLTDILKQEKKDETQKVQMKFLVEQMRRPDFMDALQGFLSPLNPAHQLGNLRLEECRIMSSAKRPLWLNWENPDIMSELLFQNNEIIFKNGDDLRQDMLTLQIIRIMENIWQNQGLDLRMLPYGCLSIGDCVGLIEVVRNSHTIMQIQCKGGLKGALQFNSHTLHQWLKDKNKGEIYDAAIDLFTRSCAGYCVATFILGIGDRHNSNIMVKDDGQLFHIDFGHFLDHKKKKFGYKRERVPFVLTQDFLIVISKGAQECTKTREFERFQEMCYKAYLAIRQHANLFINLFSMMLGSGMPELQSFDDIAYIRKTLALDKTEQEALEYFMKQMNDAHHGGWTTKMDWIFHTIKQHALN
The conditions noted are these: human recombinant PI3Kα, ATP 50 μM; read-out: PI3K alpha inhibition.

Assay [2] concerns the target T2, PI3Kγ (Homo sapiens, UniProt P48736).
T2 construct: purchased Millipore Ltd (Billerica, Mass.)
The note with it: human recombinant PI3Kγ, ATP 30 μM; read-out: PI3K gamma inhibition.

Assay [3] has as its target T3, PI3Kδ (Homo sapiens, UniProt O00329).
T3 construct: purchased Millipore Ltd (Billerica, Mass.)
T3 sequence (O00329 1-1044): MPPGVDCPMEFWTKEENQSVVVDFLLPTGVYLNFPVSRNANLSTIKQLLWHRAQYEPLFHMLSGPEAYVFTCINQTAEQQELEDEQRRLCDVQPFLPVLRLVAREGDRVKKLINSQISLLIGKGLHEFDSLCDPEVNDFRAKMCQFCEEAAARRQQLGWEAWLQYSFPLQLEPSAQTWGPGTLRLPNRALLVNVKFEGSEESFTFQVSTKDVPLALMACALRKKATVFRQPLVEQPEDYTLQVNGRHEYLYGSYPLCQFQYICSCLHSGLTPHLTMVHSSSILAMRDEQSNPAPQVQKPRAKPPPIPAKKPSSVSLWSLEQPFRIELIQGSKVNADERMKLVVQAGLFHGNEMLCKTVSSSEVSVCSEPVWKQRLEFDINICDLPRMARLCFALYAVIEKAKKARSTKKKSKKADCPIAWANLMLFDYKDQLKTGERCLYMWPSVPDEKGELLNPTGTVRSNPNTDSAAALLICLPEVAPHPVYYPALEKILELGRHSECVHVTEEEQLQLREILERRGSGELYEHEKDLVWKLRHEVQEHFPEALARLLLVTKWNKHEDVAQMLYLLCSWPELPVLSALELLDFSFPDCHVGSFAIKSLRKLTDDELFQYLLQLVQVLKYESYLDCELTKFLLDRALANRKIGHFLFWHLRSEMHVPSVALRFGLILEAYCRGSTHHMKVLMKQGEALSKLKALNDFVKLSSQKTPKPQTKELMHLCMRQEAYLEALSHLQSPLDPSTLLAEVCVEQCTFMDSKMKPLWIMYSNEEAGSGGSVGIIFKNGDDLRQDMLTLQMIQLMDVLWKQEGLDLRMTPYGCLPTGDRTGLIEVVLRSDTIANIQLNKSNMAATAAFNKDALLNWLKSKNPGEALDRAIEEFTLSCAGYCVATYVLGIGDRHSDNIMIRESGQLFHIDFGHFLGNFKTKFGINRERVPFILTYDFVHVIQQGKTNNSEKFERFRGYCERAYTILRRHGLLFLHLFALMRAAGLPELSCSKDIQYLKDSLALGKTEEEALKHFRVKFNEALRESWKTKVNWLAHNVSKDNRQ
The note with it: human recombinant PI3Kδ, ATP 80 μM; read-out: PI3K delta inhibition.

Assay [4] addresses T4, PI3Kβ (Homo sapiens, UniProt P42338).
T4 construct: purchased Millipore Ltd (Billerica, Mass.)
The conditions noted are these: human recombinant PI3Kβ, ATP 100 μM; read-out: PI3K beta inhibition.

T4 sequence (P42338 whole entry): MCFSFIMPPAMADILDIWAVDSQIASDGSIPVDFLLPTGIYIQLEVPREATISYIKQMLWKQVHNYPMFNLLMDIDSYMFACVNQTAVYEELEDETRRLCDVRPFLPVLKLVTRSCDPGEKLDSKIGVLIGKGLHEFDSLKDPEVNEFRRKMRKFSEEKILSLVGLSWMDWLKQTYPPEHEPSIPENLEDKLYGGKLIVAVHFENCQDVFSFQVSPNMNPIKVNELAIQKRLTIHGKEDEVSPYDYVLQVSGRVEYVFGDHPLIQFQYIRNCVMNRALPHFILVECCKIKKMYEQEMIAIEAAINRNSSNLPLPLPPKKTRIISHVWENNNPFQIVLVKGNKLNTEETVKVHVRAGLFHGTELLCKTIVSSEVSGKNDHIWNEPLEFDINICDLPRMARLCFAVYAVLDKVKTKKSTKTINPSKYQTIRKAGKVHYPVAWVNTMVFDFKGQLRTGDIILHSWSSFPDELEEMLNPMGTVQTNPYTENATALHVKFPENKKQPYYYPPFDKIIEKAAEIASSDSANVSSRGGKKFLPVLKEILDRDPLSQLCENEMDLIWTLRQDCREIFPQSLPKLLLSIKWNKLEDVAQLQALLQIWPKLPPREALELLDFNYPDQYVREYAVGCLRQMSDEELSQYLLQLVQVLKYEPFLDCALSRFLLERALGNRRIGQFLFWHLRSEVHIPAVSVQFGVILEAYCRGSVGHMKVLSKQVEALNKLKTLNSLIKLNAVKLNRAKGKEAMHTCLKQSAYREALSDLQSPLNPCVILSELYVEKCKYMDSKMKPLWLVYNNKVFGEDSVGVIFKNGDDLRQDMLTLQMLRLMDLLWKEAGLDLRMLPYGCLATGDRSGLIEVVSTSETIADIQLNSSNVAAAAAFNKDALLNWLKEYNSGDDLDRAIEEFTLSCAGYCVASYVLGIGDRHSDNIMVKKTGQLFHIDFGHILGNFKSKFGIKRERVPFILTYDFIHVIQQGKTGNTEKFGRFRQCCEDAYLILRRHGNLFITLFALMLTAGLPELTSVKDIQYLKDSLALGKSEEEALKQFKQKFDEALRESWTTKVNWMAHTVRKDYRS
T2 sequence (P48736 whole entry): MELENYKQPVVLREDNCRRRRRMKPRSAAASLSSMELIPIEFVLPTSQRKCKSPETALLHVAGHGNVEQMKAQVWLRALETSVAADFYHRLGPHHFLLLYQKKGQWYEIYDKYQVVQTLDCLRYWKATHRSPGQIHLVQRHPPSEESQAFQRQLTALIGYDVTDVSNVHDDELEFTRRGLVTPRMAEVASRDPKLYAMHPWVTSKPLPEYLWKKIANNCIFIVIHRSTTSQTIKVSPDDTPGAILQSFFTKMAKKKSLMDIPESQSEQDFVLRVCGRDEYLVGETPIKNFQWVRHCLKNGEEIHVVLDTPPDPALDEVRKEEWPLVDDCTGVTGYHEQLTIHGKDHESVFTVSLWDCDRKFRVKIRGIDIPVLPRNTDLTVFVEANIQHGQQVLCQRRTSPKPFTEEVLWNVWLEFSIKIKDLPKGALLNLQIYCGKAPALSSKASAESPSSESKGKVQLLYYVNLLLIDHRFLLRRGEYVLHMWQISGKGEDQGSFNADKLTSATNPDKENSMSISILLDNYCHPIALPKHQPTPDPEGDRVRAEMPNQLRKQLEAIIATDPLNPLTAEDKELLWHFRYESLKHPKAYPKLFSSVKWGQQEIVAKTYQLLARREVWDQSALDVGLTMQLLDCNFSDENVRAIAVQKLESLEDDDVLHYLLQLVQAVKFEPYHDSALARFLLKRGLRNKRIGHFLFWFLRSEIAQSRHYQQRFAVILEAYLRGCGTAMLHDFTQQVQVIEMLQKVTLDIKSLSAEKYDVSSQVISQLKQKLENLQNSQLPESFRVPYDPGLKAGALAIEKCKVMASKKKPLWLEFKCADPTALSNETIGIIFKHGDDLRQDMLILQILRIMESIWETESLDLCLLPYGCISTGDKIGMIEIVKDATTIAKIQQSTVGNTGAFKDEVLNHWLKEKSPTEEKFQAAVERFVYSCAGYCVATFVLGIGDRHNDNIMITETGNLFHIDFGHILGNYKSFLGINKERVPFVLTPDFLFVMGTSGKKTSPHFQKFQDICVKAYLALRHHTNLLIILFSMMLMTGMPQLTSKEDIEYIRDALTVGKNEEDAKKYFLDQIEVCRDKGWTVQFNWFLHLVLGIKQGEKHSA

Consider `CC(c1oc(=O)c2ccccc2c1C1=CCCN(C2CNC2)C1)n1nc(-c2cc(O)cc(F)c2)c2c(N)ncnc21` (centres unmarked) [Example 173, 3-(1-(4-amino-3-(3-fluoro-5-hydroxyphenyl)-1H-pyrazolo[3,4-d]pyrimidin-1-yl)ethyl)-4-(1-(azetidin-3-yl)-1,2,5,6-tetrahydropyridin-3-yl)-1H-isochromen-1-one dihydrochloride], for which the pIC50 in assay [1] was 6.00 to 8.00; in assay [2] it was 6.00 to 8.00; in assay [3], greater than 8.00; in assay [4] it was 6.00 to 8.00.
In the case of `CC(C)N1CCC=C(c2c(C(C)n3nc(-c4cc(O)cc(F)c4)c4c(N)ncnc43)oc(=O)c3ccccc23)C1` (centres unmarked) [Example 174, 3-(1-(4-amino-3-(3-fluoro-5-hydroxyphenyl)-1H-pyrazolo[3,4-d]pyrimidin-1-yl)ethyl)-4-(1-isopropyl-1,2,5,6-tetrahydropyridin-3-yl)-1H-isochromen-1-one hydrochloride], the pIC50 in assay [1], in assay [2], in assay [3] and in assay [4] was 6.00 to 8.00 in each case.
Regarding `CC(c1oc(=O)c2ccccc2c1C1=CCN(C)CC1)n1nc(-c2cncc(O)c2)c2c(N)ncnc21` (centres unmarked) [Example 175, 3-(1-(4-amino-3-(5-hydroxypyridin-3-yl)-1H-pyrazolo[3,4-d]pyrimidin-1-yl)ethyl)-4-(1-methyl-1,2,3,6-tetrahydropyridin-4-yl)-1H-isochromen-1-one hydrochloride], the pIC50 in assay [1] was 6.00 to 8.00; in assay [2], 6.00 to 8.00; in assay [3], greater than 8.00; in assay [4], greater than 8.00.
Turning to `CC(c1oc(=O)c2ccccc2c1-c1ccccc1)n1nc(I)c2c(N)ncnc21` (centres unmarked) [Int D2, 3-(1-(4-Amino-3-iodo-1H-pyrazolo[3,4-d]pyrimidin-1-yl)ethyl)-4-phenyl-1H-isochromen-1-one], the pIC50 in assay [1] was less than 6.00; in assay [2], 6.00 to 8.00; in assay [3] it was greater than 8.00; in assay [4] it was 6.00 to 8.00.
With `Cc1cccc(-c2c(C(C)n3nc(I)c4c(N)ncnc43)oc(=O)c3ccccc23)c1` (centres unmarked) [Int D3, 3-(1-(4-Amino-3-iodo-1H-pyrazolo[3,4-d]pyrimidin-1-yl)ethyl)-4-m-tolyl-1H-isochromen-1-one], the pIC50 in assay [1] is less than 6.00; in assay [2], 6.00 to 8.00; in assay [3] it was greater than 8.00; in assay [4] it was less than 6.00.
